As a reminder, the Kd is a measure of binding affinity in units of concentration. A higher Kd goes with lower affinity. For orientation: IC50 means the concentration that inhibits the measured activity by half.

Our source for the Kd and IC50 values is patent publication US20250059188A1, “ARYLSULPHONAMIDE COMPOUNDS” (Anaxis Pharma Pty Ltd, priority 2021, published 2025).

For test [1], the target named is human MLKL (full length) (Homo sapiens (Human), UniProt Q8NB16). Description: KINOMEscan binding assay, human MLKL (full length). The note with it: equilibrium dissociation constant. The essentials:
(§1)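 KINOMEscan competition binding using kinase-tagged T7 phage or HEK-293-produced DNA-tagged protein captured on ligand beads, with eluted protein quantified by qPCR. Compounds were run as an 11-point 3-fold series, top 30,000 nM, in 1% DMSO. Kd was fitted with the Hill equation, slope fixed at −1.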

For test [2], the system named is U937 cells. Description: Counter screen: U937 cell viability without TSQ cocktail (off-target effect). More on the design: species or system human. The note with it: Homo sapiens, U-937, compound without TSQ cocktail, read-out: Off-target effect (IC50 cell-based assay). The essentials:
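Off-target viability counter screen: compounds titrated 36 μM down 1:3 over 10 points (0.3% DMSO) on 20,000 U937 cells/well, no TNF/Smac mimetic/Q-VD-OPh added, 48 h incubation. ATP-based CellTiter-Glo luminescence, four-parameter logistic IC50.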
Background: The purpose of a counterscreen is to sort out artefacts and off-target activity.

Test [3] relates to U937 human histiocytic leukemia cell line. Description: Inhibition of TSQ induced necroptosis in U937 cells (CellTitre-Glo). As to conditions: Homo sapiens, U-937, TSQ cocktail (TNF, Smac mimetic, Q-VD-OPh), 48 hours, read-out: Inhibition of TSQ-induced necroptosis (IC50 cell-based assay). The essentials:
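Necroptosis was induced with TNF-Fc (100 ng/ml), Smac mimetic (500 nM) and Q-VD-OPh (10 μM) in 20000 U937 cells/well exposed to a 10-point, 3-fold compound series (top 36 μM, 0.3% DMSO). ATP luminescence read after 48 h; 4-parameter fit gave IC50. Parallel TSQ-free wells assessed compound toxicity.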

For test [4], the target named is human RIPK3 (Homo sapiens (Human), UniProt Q9Y572). Description: KINOMEscan binding assay, human RIPK3. The note with it: equilibrium dissociation constant. The essentials: as §1
human RIPK3, sequence (Q9Y572 whole entry): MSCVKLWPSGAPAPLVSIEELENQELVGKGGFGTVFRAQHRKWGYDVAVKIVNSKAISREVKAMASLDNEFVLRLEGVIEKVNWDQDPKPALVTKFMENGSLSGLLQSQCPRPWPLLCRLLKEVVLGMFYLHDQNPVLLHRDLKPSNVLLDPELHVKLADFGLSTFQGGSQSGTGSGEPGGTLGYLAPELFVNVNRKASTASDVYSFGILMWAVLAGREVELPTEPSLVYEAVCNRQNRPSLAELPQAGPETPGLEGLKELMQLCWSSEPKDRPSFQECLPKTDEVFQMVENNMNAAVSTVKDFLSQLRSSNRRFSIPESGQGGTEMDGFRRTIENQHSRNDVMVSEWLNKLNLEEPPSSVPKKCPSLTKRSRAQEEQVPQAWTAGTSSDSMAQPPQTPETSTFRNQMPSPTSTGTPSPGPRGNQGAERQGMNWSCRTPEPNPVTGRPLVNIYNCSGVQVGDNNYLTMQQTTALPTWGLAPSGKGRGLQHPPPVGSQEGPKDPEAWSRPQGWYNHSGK
Test [5] concerns the target human RIPK1 (Homo sapiens (Human), UniProt Q13546). Description: KINOMEscan binding assay, human RIPK1. As to conditions: equilibrium dissociation constant. In a few lines:
as §1

human RIPK1, sequence (Q13546 whole entry): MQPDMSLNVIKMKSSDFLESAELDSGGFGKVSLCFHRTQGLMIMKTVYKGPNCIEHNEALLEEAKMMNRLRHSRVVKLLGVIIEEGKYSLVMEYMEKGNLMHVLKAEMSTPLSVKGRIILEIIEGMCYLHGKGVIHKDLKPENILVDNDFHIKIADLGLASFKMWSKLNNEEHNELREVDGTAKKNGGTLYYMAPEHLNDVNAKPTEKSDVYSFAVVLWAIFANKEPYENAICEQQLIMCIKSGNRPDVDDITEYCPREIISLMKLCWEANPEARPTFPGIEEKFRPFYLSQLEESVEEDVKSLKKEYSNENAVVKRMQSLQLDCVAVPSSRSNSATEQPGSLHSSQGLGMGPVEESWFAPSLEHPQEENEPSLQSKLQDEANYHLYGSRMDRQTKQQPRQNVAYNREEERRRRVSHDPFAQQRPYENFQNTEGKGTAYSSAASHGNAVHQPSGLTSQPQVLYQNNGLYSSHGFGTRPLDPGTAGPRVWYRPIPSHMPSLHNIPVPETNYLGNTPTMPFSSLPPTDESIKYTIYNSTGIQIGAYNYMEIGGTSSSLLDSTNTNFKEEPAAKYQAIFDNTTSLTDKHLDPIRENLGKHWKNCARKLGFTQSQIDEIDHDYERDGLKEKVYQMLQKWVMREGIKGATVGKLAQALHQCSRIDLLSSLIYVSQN
human MLKL (full length), sequence (Q8NB16 whole entry): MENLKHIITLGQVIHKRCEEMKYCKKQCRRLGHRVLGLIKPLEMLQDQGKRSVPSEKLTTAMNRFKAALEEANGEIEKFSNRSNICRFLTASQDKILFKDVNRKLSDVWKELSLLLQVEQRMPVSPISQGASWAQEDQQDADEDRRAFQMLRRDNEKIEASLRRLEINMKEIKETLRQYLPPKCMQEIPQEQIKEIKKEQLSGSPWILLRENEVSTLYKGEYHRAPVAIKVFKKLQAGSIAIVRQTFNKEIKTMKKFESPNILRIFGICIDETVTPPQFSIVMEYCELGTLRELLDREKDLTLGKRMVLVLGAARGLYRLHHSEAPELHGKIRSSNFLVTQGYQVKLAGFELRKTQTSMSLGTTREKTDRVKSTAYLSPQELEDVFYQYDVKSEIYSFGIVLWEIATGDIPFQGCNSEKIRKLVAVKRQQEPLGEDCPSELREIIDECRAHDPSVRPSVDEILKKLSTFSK

Turning to `C[C@H](Oc1cc(-c2nn(C)c3c(-c4cnn(C5CCCNCC5)c4)cnc(N)c23)ccc1NS(=O)(=O)C(F)F)c1ccc(F)cc1` (stereo partly drawn) [Compound 74, N-(4-(4-amino-7-(1-(azepan-4-yl)-1H-pyrazol-4-yl)-1-methyl-1H-pyrazolo[4,3-c]pyridin-3-yl)-2-((S)-1-(4-fluorophenyl)ethoxy)phenyl)-1,1-difluoromethanesulfonamide], the equilibrium dissociation constant (Kd) in test [1] is below 0.001 µM; in test [4], above 10 µM; in test [5], above 10 µM. For the same compound, the figures for the IC50 in test [2] and in test [3] were above 10 µM and 0.01 to 1 µM, respectively.

For the compound `C[C@H](Oc1cc(-c2nn(C)c3c(-c4cnn(CCN5CC(C)(C)C5)c4)cnc(N)c23)ccc1NS(=O)(=O)C(F)F)c1ccc(F)cc1` [Compound 75, (S)-N-(4-(4-amino-7-(1-(2-(3,3-dimethylazetidin-1-yl)ethyl)-1H-pyrazol-4-yl)-1-methyl-1H-pyrazolo[4,3-c]pyridin-3-yl)-2-(1-(4-fluorophenyl)ethoxy)phenyl)-1,1-difluoromethanesulfonamide], the figures for the Kd in test [1], in test [4] and in test [5] were below 0.001 µM, above 10 µM and above 10 µM, respectively. Also, the IC50 in test [2] is above 10 µM; in test [3] it was below 0.01 µM.

For `CC(C)N1CC(n2cc(-c3cnc(N)c4c(-c5ccc(NS(=O)(=O)C(F)F)c(O[C@@H](C)c6ccc(F)cc6)c5)nn(C)c34)cn2)C1` [Compound 76, (S)-N-(4-(4-amino-7-(1-(1-isopropylazetidin-3-yl)-1H-pyrazol-4-yl)-1-methyl-1H-pyrazolo[4,3-c]pyridin-3-yl)-2-(1-(4-fluorophenyl)ethoxy)phenyl)-1,1-difluoromethanesulfonamide], the Kd in test [1] was below 0.001 µM; in test [4], above 10 µM; in test [5], above 10 µM. Also, the IC50 in test [2] was above 10 µM; in test [3], below 0.01 µM.

`C[C@H](Oc1cc(-c2nn(C)c3c(-c4cnn(C5CN(CC(F)(F)F)C5)c4)cnc(N)c23)ccc1NS(=O)(=O)C(F)F)c1ccc(F)cc1` [Compound 77, (S)-N-(4-(4-amino-1-methyl-7-(1-(1-(2,2,2-trifluoroethyl)azetidin-3-yl)-1H-pyrazol-4-yl)-1H-pyrazolo[4,3-c]pyridin-3-yl)-2-(1-(4-fluorophenyl)ethoxy)phenyl)-1,1-difluoromethanesulfonamide]: the dissociation constant (Kd) in test [1] is below 0.001 µM; in test [4] it was above 10 µM; in test [5] it was above 10 µM. For the same compound, the values for the half-maximal inhibitory concentration (IC50) in test [2] and in test [3] were above 10 µM and below 0.01 µM, respectively.

Take `C[C@H](Oc1cc(-c2nn(C)c3c(-c4cnn(C5CC6(CNC6)C5)c4)cnc(N)c23)ccc1NS(=O)(=O)C(F)F)c1ccc(F)cc1` [Compound 78, (S)-N-(4-(7-(1-(2-azaspiro[3.3]heptan-6-yl)-1H-pyrazol-4-yl)-4-amino-1-methyl-1H-pyrazolo[4,3-c]pyridin-3-yl)-2-(1-(4-fluorophenyl)ethoxy)phenyl)-1,1-difluoromethanesulfonamide]: the Kd was below 0.001 µM in test [1], above 10 µM in test [4] and above 10 µM in test [5]. Further, the IC50 in test [2] was above 10 µM; in test [3] it was 0.01 to 1 µM.

For the compound `CNCCn1cc(-c2cnc(N)c3c(-c4ccc(NS(=O)(=O)C(F)F)c(O[C@@H](C)c5ccc(F)cc5)c4)nn(C)c23)cn1` [Compound 82, (S)-N-(4-(4-amino-1-methyl-7-(1-(2-(methylamino)ethyl)-1H-pyrazol-4-yl)-1H-pyrazolo[4,3-c]pyridin-3-yl)-2-(1-(4-fluorophenyl)ethoxy)phenyl)-1,1-difluoromethanesulfonamide], the dissociation constant Kd in test [1] is below 0.001 µM; in test [4], above 10 µM; in test [5] it was above 10 µM. The IC50 was above 10 µM in test [2] and 0.01 to 1 µM in test [3].

Take `C[C@H](Oc1cc(-c2nn(C)c3c(-c4cc(C#N)n(C)c4)cnc(N)c23)ccc1NS(=O)(=O)C(F)F)c1ccc(F)cc1` [Compound 83, (S)-N-(4-(4-amino-7-(5-cyano-1-methyl-1H-pyrrol-3-yl)-1-methyl-1H-pyrazolo[4,3-c]pyridin-3-yl)-2-(1-(4-fluorophenyl)ethoxy)phenyl)-1,1-difluoromethanesulfonamide]: the values for the Kd in test [1], in test [4] and in test [5] were 0.001 to 0.1 µM, above 10 µM and above 10 µM, respectively. Further, the results for the 50% inhibitory concentration (IC50) in test [2] and in test [3] were above 10 µM and 0.01 to 1 µM, respectively.

For `C[C@H](Oc1cc(-c2nn(C)c3c(-c4cccc(Cl)c4)cnc(N)c23)ccc1NS(=O)(=O)C(F)F)c1ccc(F)cc1` [Compound 84, (S)-N-(4-(4-amino-7-(3-chlorophenyl)-1-methyl-1H-pyrazolo[4,3-c]pyridin-3-yl)-2-(1-(4-fluorophenyl)ethoxy)phenyl)-1,1-difluoromethanesulfonamide], the Kd is 0.001 to 0.1 µM in test [1], above 10 µM in test [4] and above 10 µM in test [5]. Moreover, the 50% inhibitory concentration (IC50) in test [2] was above 10 µM; in test [3] it was 1 to 10 µM.

For the compound `C[C@H](Oc1cc(-c2nn(C)c3c(-c4ccccc4Cl)cnc(N)c23)ccc1NS(=O)(=O)C(F)F)c1ccc(F)cc1` [Compound 85, (S)-N-(4-(4-amino-7-(2-chlorophenyl)-1-methyl-1H-pyrazolo[4,3-c]pyridin-3-yl)-2-(1-(4-fluorophenyl)ethoxy)phenyl)-1,1-difluoromethanesulfonamide], the Kd is 0.001 to 0.1 µM in test [1], above 10 µM in test [4] and above 10 µM in test [5]. Moreover, the IC50 is above 10 µM in test [2] and 1 to 10 µM in test [3].

On to `C[C@H](Oc1cc(-c2nn(C)c3c(-c4ccccc4)cnc(N)c23)ccc1NS(=O)(=O)C(F)F)c1ccc(F)cc1` [Compound 86, (S)-N-(4-(4-amino-1-methyl-7-phenyl-1H-pyrazolo[4,3-c]pyridin-3-yl)-2-(1-(4-fluorophenyl)ethoxy)phenyl)-1,1-difluoromethanesulfonamide], for which the equilibrium dissociation constant (Kd) in test [1] was 0.001 to 0.1 µM; in test [4], above 10 µM; in test [5], above 10 µM. Moreover, the IC50 was above 10 µM in test [2] and 0.01 to 1 µM in test [3].

As to `C[C@H](Oc1cc(-c2nn(C)c3c(-c4ccc(Cl)cc4)cnc(N)c23)ccc1NS(=O)(=O)C(F)F)c1ccc(F)cc1` [Compound 87, (S)-N-(4-(4-amino-7-(4-chlorophenyl)-1-methyl-1H-pyrazolo[4,3-c]pyridin-3-yl)-2-(1-(4-fluorophenyl)ethoxy)phenyl)-1,1-difluoromethanesulfonamide], the dissociation constant Kd in test [1] was 0.001 to 0.1 µM; in test [4] it was above 10 µM; in test [5], above 10 µM. The IC50 in test [2] was above 10 µM; in test [3] it was 1 to 10 µM.

With `C[C@H](Oc1cc(-c2nn(C)c3c(-c4cnn(CC5CCCN5)c4)cnc(N)c23)ccc1NS(=O)(=O)C(F)F)c1ccc(F)cc1` (stereo partly drawn) [Compound 88, N-(4-(4-amino-1-methyl-7-(1-(pyrrolidin-2-ylmethyl)-1H-pyrazol-4-yl)-1H-pyrazolo[4,3-c]pyridin-3-yl)-2-((S)-1-(4-fluorophenyl)ethoxy)phenyl)-1,1-difluoromethanesulfonamide], the Kd was below 0.001 µM in test [1], above 10 µM in test [4] and above 10 µM in test [5]. For the same compound, the half-inhibitory concentration (IC50) is above 10 µM in test [2] and 0.01 to 1 µM in test [3].

As to `C[C@H](Oc1cc(-c2nn(C)c3c(-c4cnn(C5(CN)CC5)c4)cnc(N)c23)ccc1NS(=O)(=O)C(F)F)c1ccc(F)cc1` [Compound 89, (S)—N-(4-(4-amino-7-(1-(1-(aminomethyl)cyclopropyl)-1H-pyrazol-4-yl)-1-methyl-1H-pyrazolo[4,3-c]pyridin-3-yl)-2-(1-(4-fluorophenyl)ethoxy)phenyl)-1,1-difluoromethanesulfonamide], the Kd in test [1] is below 0.001 µM; in test [4] it was above 10 µM; in test [5] it was above 10 µM. Further, the IC50 in test [2] was above 10 µM; in test [3], 0.01 to 1 µM.

As for `C[C@H](Oc1cc(-c2nn(C)c3c(-c4cnn(C5CN(C)C5)c4)cnc(N)c23)ccc1NS(=O)(=O)C(F)F)c1ccc(F)cc1` [Compound 92, (S)-N-(4-(4-amino-1-methyl-7-(1-(1-methylazetidin-3-yl)-1H-pyrazol-4-yl)-1H-pyrazolo[4,3-c]pyridin-3-yl)-2-(1-(4-fluorophenyl)ethoxy)phenyl)-1,1-difluoromethanesulfonamide], the Kd was below 0.001 µM in test [1], above 10 µM in test [4] and above 10 µM in test [5]. Further, the IC50 in test [2] was above 10 µM; in test [3], 0.01 to 1 µM.

Turning to `C[C@H](Oc1cc(-c2nn(C)c3c(-c4cnn(C5CCN(C)C5)c4)cnc(N)c23)ccc1NS(=O)(=O)C(F)F)c1ccc(F)cc1` (stereo partly drawn) [Compound 93, N-(4-(4-amino-1-methyl-7-(1-(1-methylpyrrolidin-3-yl)-1H-pyrazol-4-yl)-1H-pyrazolo[4,3-c]pyridin-3-yl)-2-((S)-1-(4-fluorophenyl)ethoxy)phenyl)-1,1-difluoromethanesulfonamide], the equilibrium dissociation constant (Kd) was below 0.001 µM in test [1], above 10 µM in test [4] and above 10 µM in test [5]. Also, the IC50 in test [2] was above 10 µM; in test [3], 0.01 to 1 µM.
